Results reported in US5438135A, “Water-soluble tetraazaporphins and fluorochrome for labeling” (Hitachi Chemical Company, priority 1991, dated 1995).
Where two headings read alike, the source gives them in different places.

Legend:
[1] = system: anti-morphine monoclonal antibody; assay type: binding
Method: For morphine, aminomorphine and the above-mentioned fluorochrome-labeled morphines, relative immuno-affinity for anti-morphine monoclonal antibody was measured using a competitive reaction in which they competed with tritium-labeled morphine.

[2] = system: DNA having a known base sequence; assay: Analysis of the base sequence of DNA (Sanger reaction with labeled primers, DNA sequencer equipped with a semiconductor laser); conditions: Triton X-100; semiconductor laser 680 nm
Method: A DNA having a known base sequence was used as a sample. Sanger reaction was carried out for the 4 kinds of bases using each of the labeled primers synthesized in Examples 19 to 25 or primers having a tetraazaporphin attached thereto through a linker synthesized in the same manner as in Examples 19 to 25. The DNA fragments thus obtained were separated by electrophoresis in different lanes for the 4 reaction systems, respectively, and analyzed by means of a DNA sequencer equipped with a semiconductor laser. The reaction systems contained a nonionic surfactant as an addition if necessary.
Each of the phthalocyanines disclosed in International Application Number PCT/US89/03807 was attached to the oligonucleotide primer obtained in Example 18, according to the methods of grafted patents and the methods described in Examples 19 to 25 of this invention. Using each of the phthalocyanine-attached oligonucleotides thus obtained, the base sequence of DNA was analyzed in the same manner as in Example 26.

Human β-globin gene = assay: Detection of β-globin gene in human DNA by PCR with labeled primers, fluorescence intensity of eluate; conditions: Triton X-100, laser 680 nm
Method: Human β-globin gene was detected by a gene detection method using the PCR (Polymorase Chain Reaction) method.
Twenty cycles of gene amplification was carried out (the total volume of solution: 100 μl) according to the protocol of Perkin-Elmer-Cetus Corporation by using human placental DNA (1 μg), each of the labeled primers, i.e., illustrative compound No.-[…], synthesized in the manner described above (300 ng), HO-[…] (300 ng), a nonionic surfactant, and TaqDNA polymerase (Perkin-Elmer-Cetus Corporation).
Human placental DNA (1 μg), the same illustrative compound No.-[…] as in sample 1 (300 ng), HO-[…] (300 ng) and a nonionic surfactant were added to a reaction solution containing no TaqDNA polymerase which had been prepared according to the protocol of Perkin-Elmer-Cetus Corporation (the total volume of the solution: 100 μl). […]
After washing with buffer solution A (500 μl) and buffer solution A containing 5% ethanol (500 μl), elution was carried out using buffer solution A containing 10% ethanol (500 μl). The pH of the eluate was adjusted to about 8, and fluorescence intensity was measured by means of a photodiode array by using a semiconductor laser as an exciting light source. […]

[3] = Measurement of fluorescence quantum yield (relative quantum yield method); assay type: physicochemical; conditions: Methanol
Method: For the tetraazaporphins obtained in Examples 1 to 11 and tetraaxzaporphins of this invention obtained in the same manner as in Examples 1 to 11, fluorescence quantum yield was measured according to the method for measuring relative quantum yield described in a reference [J. Photochem. Photobiol, A. Chemistry, vol. 45, p. 117-121 (1988)] using 1,1',3,3,3',3'-hexamethylindotricarbocyanine perchlorate or oxazine-720 as a standard substance in the near infrared region. As is clear from Tables 10 to 12, all of the fluorochromes for labeling of this invention show a sufficient fluorescence quantum yield.

3-(4-aminobutyl)morphine [Aminomorphine]
Relative affinity [1]: 1

CN1CC[C@]23c4c5ccc(O)c4O[C@H]2[C@@H](O)C=C[C@H]3[C@H]1C5 [Morphine]
Relative affinity ([1]; relative to morphine, competitive reaction with tritium-labeled morphine): 1

Tetraazaporphin-labeled primer 62: oligonucleotide primer 5'-GTTTCCCAGTCACGAC-3' labeled with illustrative compound No. 62 (labeled with tetraazaporphin compound No. 62, position not given here)
Number of bases of DNA [2]: 350
Precision [2]: 99.7%
Relative intensity Sample 1 (Human β-globin gene; Sample 1 (with TaqDNA polymerase, 20 cycles)): 6
Relative intensity Sample 2 (Human β-globin gene; Sample 2 (no TaqDNA polymerase)): 134

sodium bis(tributylsiloxy)silicon-tetraphenylthionaphthalocyanine octacarboxylate [Illustrative compound No. 1]
Fluorescence quantum yield ([3]; excitation wavelength 700 nm): 0.33

sodium bis(tributylsiloxy)silicon-tetraphenylthionaphthalocyaninesulfonate [Illustrative compound No. 6]
Fluorescence quantum yield ([3]; excitation wavelength 700 nm): 0.30

sodium bis(tributylsiloxy)silicon-tetraphenylthioquinolocyanineoctacarboxylate [Illustrative compound No. 21]
Fluorescence quantum yield ([3]; excitation wavelength 650 nm): 0.52

sodium bis(trihydroxyneopentoxy)silicon-tetraphenylthionaphthalocyanineoctacarboxylate [Illustrative compound No. 11]
Fluorescence quantum yield ([3]; excitation wavelength 700 nm): 0.34

sodium bis(tripropylsiloxy)silicon-tetraethylthionaphthalocyaninetetracarboxylate [Illustrative compound No. 16]
Fluorescence quantum yield ([3]; excitation wavelength 700 nm): 0.32
